The source of these data is patent US6610824B2 (Amylin Pharmaceuticals, Inc., priority 1991, dated 2003).

Where a SMILES comes first, the peptide text is derived from it.

One data set has as its target T1, amylin receptors (Rattus norvegicus, UniProt P32214).
T1 construct: This basal forebrain tissue, containing the nucleus accumbens and surrounding regions, was weighed and homogenized; from tissue; host or cells: rat basal forebrain (nucleus accumbens and surrounding regions) membranes
T1 sequence (P32214 25-516): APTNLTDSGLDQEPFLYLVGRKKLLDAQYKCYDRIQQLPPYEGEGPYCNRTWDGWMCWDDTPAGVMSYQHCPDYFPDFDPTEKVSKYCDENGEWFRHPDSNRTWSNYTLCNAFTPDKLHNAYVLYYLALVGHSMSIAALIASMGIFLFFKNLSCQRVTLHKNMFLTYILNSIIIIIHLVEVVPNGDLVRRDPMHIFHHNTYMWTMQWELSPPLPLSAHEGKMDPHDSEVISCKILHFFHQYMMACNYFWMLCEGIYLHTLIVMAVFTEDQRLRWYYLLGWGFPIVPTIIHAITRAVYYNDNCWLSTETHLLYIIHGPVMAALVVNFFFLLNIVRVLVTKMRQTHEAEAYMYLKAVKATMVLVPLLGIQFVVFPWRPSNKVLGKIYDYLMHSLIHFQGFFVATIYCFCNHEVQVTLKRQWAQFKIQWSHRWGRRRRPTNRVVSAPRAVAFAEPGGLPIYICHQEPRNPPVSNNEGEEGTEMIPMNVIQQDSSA
T1 sequence (Q9JJ74 27-148 partner): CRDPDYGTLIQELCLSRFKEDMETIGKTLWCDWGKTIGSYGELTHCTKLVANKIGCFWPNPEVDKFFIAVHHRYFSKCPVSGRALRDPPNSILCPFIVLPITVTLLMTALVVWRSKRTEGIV
As to the kind of experiment: Receptor binding assay (125I-rat amylin competition, rat basal forebrain membranes). To be noted: competition with 125I-rat amylin at 12-16 pM. The text has this:
Unlabeled peptides were obtained from BACHEM Inc. (Torrance, Calif.) and Peninsula Laboratories (Belmont, Calif.).
Male Sprague-Dawley rats (200-250) grams were sacrificed by decapitation. Brains were removed to cold phosphate-buffered saline (PBS). From the ventral surface, cuts were made rostral to the hypothalamus, bounded laterally by the olfactory tracts and extending at a 45Ε angle medially from these tracts. This basal forebrain tissue, containing the nucleus accumbens and surrounding regions, was weighed and homogenized in ice-cold 20 mM HEPES buffer (20 mM HEPES acid, pH adjusted to 7.4 with NaOH at 23ΕC). […] The final membrane pellet was resuspended in 20 mM HEPES buffer containing 0.2 mM phenylmethylsulfonyl fluoride (PMSF).
Solutions were incubated for 60 minutes at 2ΕC. […] Filters were washed immediately before filtration with 5 ml cold PBS, and immediately after filtration with 15 ml cold PBS.

Another data set can be described thus: Stability in solution. Type of data set: physicochemical. The following applies: where a comparison is made, compared with human amylin. From the text: (§1) This may be due in some measure, although this is not known, to the different aggregation properties of the amylins from different species.
(§2) The agonist analogues of amylin of this invention are useful in view of their pharmacological properties. […] In addition to the description of compounds pursuant to FIG. 3, certain preferred compounds are set forth in Table I. The preferred compounds des-^1Lys-h-amylin [SEQ. ID. NO. 7], ^28Pro-h-amylin [SEQ. ID. NO. 8], ^25, 28, 29Pro-h-amylin [SEQ. ID. NO. 9], ^18Arg^25, 28Pro-h-amylin [SEQ. ID. NO. 10], and des-^1Lys^18Arg^25, 28Pro-h-amylin [SEQ. ID. NO. […] These preferred compounds include ^25Pro^26Val^28, 29Pro-h-amylin [SEQ. ID. NO. 12], ^25, 28, 29Pro-h-amylin, and ^18Arg^25, 28Pro-h-amylin.

Another data set can be described thus: Solubility. The following applies: where a comparison is made, compared with human amylin. In kind it is physicochemical.
Description: as §1, §2

For the compound `CC[C@H](C)[C@H](NC(=O)[C@H](C)NC(=O)CNC(=O)[C@H](Cc1ccccc1)NC(=O)[C@H](CC(N)=O)NC(=O)[C@H](CC(N)=O)NC(=O)[C@H](CO)NC(=O)[C@H](CO)NC(=O)[C@H](Cc1c[nH]cn1)NC(=O)[C@@H](NC(=O)[C@H](CC(C)C)NC(=O)[C@H](Cc1ccccc1)NC(=O)[C@H](CC(N)=O)NC(=O)[C@H](C)NC(=O)[C@H](CC(C)C)NC(=O)[C@H](CCCNC(=N)N)NC(=O)[C@H](CCC(N)=O)NC(=O)[C@@H](NC(=O)[C@H](C)NC(=O)[C@@H]1CCCCNC(=O)C[C@H](NC(=O)[C@@H](N)CCCCN)C(=O)N[C@@H](CC(N)=O)C(=O)N[C@@H]([C@@H](C)O)C(=O)N[C@@H](C)C(=O)N[C@@H]([C@@H](C)O)C(=O)N1)[C@@H](C)O)C(C)C)C(=O)N[C@@H](CC(C)C)C(=O)N[C@@H](CO)C(=O)N[C@@H](CO)C(=O)N[C@H](C(=O)N[C@@H](CC(N)=O)C(=O)N[C@H](C(=O)NCC(=O)N[C@@H](CO)C(=O)N[C@@H](CC(N)=O)C(=O)N[C@H](C(=O)N[C@@H](Cc1ccc(O)cc1)C(N)=O)[C@@H](C)O)C(C)C)[C@@H](C)O` [Example 3, ^2, 7Cyclo-[^2Asp, ^7Lys]-h-Amylin] (HELM PEPTIDE1{K.D.N.T.A.T.K.A.T.Q.R.L.A.N.F.L.V.H.S.S.N.N.F.G.A.I.L.S.S.T.N.V.G.S.N.T.Y.[am]}$PEPTIDE1,PEPTIDE1,2:R3-7:R3$$$V2.0), the IC50 at amylin receptors amounted to 0.31 nM.

For `CC[C@H](C)[C@H](NC(=O)[C@H](C)NC(=O)CNC(=O)[C@H](Cc1ccccc1)NC(=O)[C@H](CC(N)=O)NC(=O)[C@H](CC(N)=O)NC(=O)[C@H](CO)NC(=O)[C@H](CO)NC(=O)[C@H](Cc1c[nH]cn1)NC(=O)[C@@H](NC(=O)[C@H](CC(C)C)NC(=O)[C@H](Cc1ccccc1)NC(=O)[C@H](CC(N)=O)NC(=O)[C@H](C)NC(=O)[C@H](CC(C)C)NC(=O)[C@H](CCCNC(=N)N)NC(=O)[C@H](CCC(N)=O)NC(=O)[C@@H](NC(=O)[C@H](C)NC(=O)[C@@H]1CSSC[C@H](NC(=O)[C@@H](N)CCCCN)C(=O)N[C@@H](CC(N)=O)C(=O)N[C@@H]([C@@H](C)O)C(=O)N[C@@H](C)C(=O)N[C@@H]([C@@H](C)O)C(=O)N1)[C@@H](C)O)C(C)C)C(=O)N[C@@H](CC(C)C)C(=O)N[C@@H](CO)C(=O)N[C@@H](CO)C(=O)N[C@H](C(=O)N[C@@H](CC(N)=O)C(=O)N[C@H](C(=O)NCC(=O)N[C@@H](CO)C(=O)N[C@@H](CC(N)=O)C(=O)N[C@H](C(=O)N[C@@H](Cc1ccc(O)cc1)C(N)=O)[C@@H](C)O)C(C)C)[C@@H](C)O` [human amylin], the stability in solution result in the data set “Stability in solution” was “limited stability”. Moreover, the solubility result in “Solubility” is “limited solubility”. With rat amylin, the stability in solution result in the data set “Stability in solution” is “higher”. Further, the solubility result in “Solubility” is listed as “higher”.
